Literature values as cited in US20110136769A1, “METHOD OF TREATING MEN WITH TE[…] 5ALPHA-REDUCTASE INHIBITOR” (Merck Sharp & Dohme Corp., priority 2007, published 2011).

Tests used:
5α-reductase type 2 = target: T1, 5α-reductase type 2 (Homo sapiens, UniProt P31213); conditions: background statement
T1 construct: Samples of human tissue were pulverized using a freezer mill and homogenized; from tissue; host or cells: human prostate (crude nuclear pellet of homogenate)
T1 sequence (P31213 1-254): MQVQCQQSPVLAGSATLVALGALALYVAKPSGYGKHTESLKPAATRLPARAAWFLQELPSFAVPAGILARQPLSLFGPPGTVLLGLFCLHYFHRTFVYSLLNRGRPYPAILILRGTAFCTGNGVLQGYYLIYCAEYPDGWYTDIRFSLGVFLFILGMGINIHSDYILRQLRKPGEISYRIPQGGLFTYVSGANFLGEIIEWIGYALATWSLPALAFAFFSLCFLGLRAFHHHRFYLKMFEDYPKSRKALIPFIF

5α-reductase type 1 = target: T2, 5α-reductase type 1 (Homo sapiens, UniProt P18405); conditions: background statement
T2 construct: Samples of human tissue were pulverized using a freezer mill and homogenized; from tissue; host or cells: human scalp (crude nuclear pellet of homogenate)
T2 sequence (P18405 1-259): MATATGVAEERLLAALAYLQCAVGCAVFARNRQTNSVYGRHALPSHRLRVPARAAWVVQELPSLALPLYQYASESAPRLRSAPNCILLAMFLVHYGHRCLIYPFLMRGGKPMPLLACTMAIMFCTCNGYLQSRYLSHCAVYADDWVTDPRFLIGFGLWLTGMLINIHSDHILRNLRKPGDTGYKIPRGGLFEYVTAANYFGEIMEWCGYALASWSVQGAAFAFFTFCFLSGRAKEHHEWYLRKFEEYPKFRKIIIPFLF

Row | Structure (SMILES) | inhibition of the human type 2 enzyme (5α-reductase type 2) | inhibition of 5α-reductase type 1 (5α-reductase type 1)
1 | CC(C)(C)NC(=O)[C@H]1CCC2C3CCC4NC(=O)C=C[C@]4(C)C3CC[C@@]21C (stereo partly drawn) [Finasteride, 17β-(N-tert-butylcarbamoyl)-3-oxo-4-aza-5α-androst-1-en-3-one] | potent inhibitor | –
2 | C[C@]12C=CC(=O)N[C@@H]1CC[C@@H]1[C@@H]2CC[C@]2(C)[C@@H](C(=O)Nc3cc(C(F)(F)F)ccc3C(F)(F)F)CC[C@@H]12 [dutasteride] | potent inhibitors | potent inhibitors
